This assay deals with T1, human M1 receptor (Homo sapiens, UniProt P11229).
T1 sequence (P11229 1-460): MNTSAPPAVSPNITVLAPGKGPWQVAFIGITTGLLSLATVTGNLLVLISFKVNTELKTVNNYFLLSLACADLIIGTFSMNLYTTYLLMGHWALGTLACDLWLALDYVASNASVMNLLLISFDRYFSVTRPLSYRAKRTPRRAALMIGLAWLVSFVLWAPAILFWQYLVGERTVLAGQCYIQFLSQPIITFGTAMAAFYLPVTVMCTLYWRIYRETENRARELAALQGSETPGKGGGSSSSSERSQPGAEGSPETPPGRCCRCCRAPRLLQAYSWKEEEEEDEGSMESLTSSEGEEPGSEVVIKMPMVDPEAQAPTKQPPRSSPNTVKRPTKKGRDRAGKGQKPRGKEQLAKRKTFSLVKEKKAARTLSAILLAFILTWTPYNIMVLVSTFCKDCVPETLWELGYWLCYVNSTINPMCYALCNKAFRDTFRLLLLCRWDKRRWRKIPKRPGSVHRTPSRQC
Put plainly: In vitro functional assay of muscarinic acetylcholine receptor activity (aequorin calcium flux, reversal of EC80 acetylcholine response). The note with it: CHO-K1 cells stably expressing human M1 receptor with aequorin; acetylcholine at EC80; calcium flux (luminescence); read-out: M1 IC50. The assay is classed as cell-based. On the procedure:
CHO-K1 cells stably expressing human M1 receptor with aequorin (Perkin Elmer) were grown in F12 media (Gibco) containing 10% FBS (ATCC), 0.4 mg/mL geneticin (Sigma-Aldrich) and 0.25 mg/mL Zeocin (Invitrogen). Cells were grown as per the manufacturer's protocol. For compound testing, cells were grown to confluency and detached gently with Accutase (Sigma-Aldrich) followed by centrifugation for 5 min at 150× g. Cells were then re-suspended in assay buffer (i.e. DMEM/F-12 HEPES without phenol red (Invitrogen) with 0.1% BSA (Sigma-Aldrich)) at a density of 5×10^6 cells/ml. Under sterile conditions, 5 μM coelenterazine (Invitrogen) was added to the cells, mixed, then incubated at room temperature protected from light, with gentle agitation, for 4 h.
Primary compound plates were prepared in 100% DMSO in opaque 96-well plates (VWR) and serially diluted in half log increments. Secondary compound plates were prepared at 3× concentration in assay buffer. Compounds were added to white, clear bottom tissue culture treated 96-well plates (Fisher Scientific). Coelenterazine-loaded cells were then added at 5×10^5 cells/well.
Compounds and cells were incubated at room temperature for 30 min in the dark. Acetylcholine at the EC80 concentration was added and calcium flux measured using a FlexStation 3 (Molecular Devices). Sigmoidal dose-response curves were generated by measuring luminescence over 40 sec and calculating the area under the curve. Dose response curves and IC50 values were generated using Prism (GraphPad). Compounds were tested at a final concentration range of 100 μM to […] in 0.1% DMSO.
A general note: Calcium flux is commonly read through the fluorescence of an indicator in the cells.

pIC50: −log10 of the molar value.

Broadly, the pIC50 is the negative decadic logarithm of the IC50, by convention in mol/L. For the molecule `COc1cc(C(C)NCC(=O)N2CC3CCC(C2)N3c2ccc(C#N)cn2)ccc1F` (racemic) [Example 57, 6-(3-((1-(4-fluoro-3-methoxyphenyl)ethyl)glycyl)-3,8-diazabicyclo[3.2.1]octan-8-yl)nicotinonitrile], the pIC50 is over 8.00.
Under `N#Cc1ccc(N2C3CCC2CN(C(=O)CNC2CCc4ccccc42)C3)nc1` (racemic) [Example 89, 6-(3-((2,3-dihydro-1H-inden-1-yl)glycyl)-3,8-diazabicyclo[3.2.1]octan-8-yl)nicotinonitrile] stands 5.00 to 6.00; under `COc1ccc2c(c1)C(NCC(=O)N1CC3CCC(C1)N3c1ccc(C#N)cn1)CC2` (racemic) [Example 90, 6-(3-((6-methoxy-2,3-dihydro-1H-inden-1-yl)glycyl)-3,8-diazabicyclo[3.2.1]octan-8-yl)nicotinonitrile], 6.00 to 7.00.
Regarding `N#Cc1ccc(N2C3CCC2CN(C(=O)CNC2CCc4cc(F)cc(F)c42)C3)nc1` (racemic) [Example 91, 6-(3-((5,7-difluoro-2,3-dihydro-1H-inden-1 yl)glycyl)-3,8-diazabicyclo[3.2.1]octan-8-yl)nicotinonitrile], the pIC50 was 6.00 to 7.00.
Regarding `N#Cc1ccc(N2C3CCC2CN(C(=O)CN2CCC2c2ccc(F)cc2)C3)nc1` (racemic) [Example 104], the pIC50 is under 6.00.
As for `CC1c2ccccc2CCN1CC(=O)N1CC2CCC(C1)N2c1ccc(C#N)cn1` (racemic) [Example 106, 6-(3-(2-(1-methyl-3,4-dihydroisoquinolin-2(1H)-yl)acetyl)-3,8-diazabicyclo[3.2.1]octan-8-yl)nicotinonitrile], the figure is 6.00 to 7.00; as for `COc1ccc2c(c1)C(C)N(CC(=O)N1CC3CCC(C1)N3c1ccc(C#N)cn1)CC2` (racemic) [Example 120, 6-(3-(2-(7-methoxy-1-methyl-3,4-dihydroisoquinolin-2(1H)-yl)acetyl)-3,8-diazabicyclo[3.2.1]octan-8-yl)nicotinonitrile], 5.00 to 6.00.
As to `COc1cccc2c1CCN(CC(=O)N1CC3CCC(C1)N3c1ccc(C#N)cn1)C2C` (racemic) [Example 121, 6-(3-(2-(5-methoxy-1-methyl-3,4-dihydroisoquinolin-2(1H)-yl)acetyl)-3,8-diazabicyclo[3.2.1]octan-8-yl)nicotinonitrile], the pIC50 is 6.00 to 7.00.
Under `COc1cncc(C(NCC(=O)N2CC3CCC(C2)N3c2ccc(C#N)cn2)C(F)F)c1` (racemic) [Example 127, 6-(3-((2,2-difluoro-1-(5-methoxypyridin-3-yl)ethyl)glycyl)-3,8-diazabicyclo[3.2.1]octan-8-yl)nicotinonitrile] stands over 8.00.
Under `N#Cc1ccc(N2C3CCC2CN(C(=O)CNC(c2ccc(F)cc2F)C(F)F)C3)nc1` (racemic) [Example 128, 6-(3-((1-(2.4-difluorophenyl)-2,2-difluoroethyl)glycyl)-3,8-diazabicyclo[3.2.1]octan-8-yl)nicotinonitrile] stands 7.00 to 8.00; under `N#Cc1ccc(N2C3CCC2CN(C(=O)CCNC(c2ccc(F)c(F)c2)C(F)F)C3)nc1` (racemic) [Example 129, 6-(3-(3-((1-(3,4-difluorophenyl)-2,2-difluoroethyl)amino)propanoyl)-3,8-diazabicyclo[3.2.1]octan-8-yl)nicotinonitrile], over 8.00.
Under `CC(SCC(=O)N1CC2CCC(C1)N2c1ccc(C#N)cn1)c1ccccc1` (racemic) [Example 132, 6-(3-(2-((1-phenylethyl)thio)acetyl)-3,8-diazabicyclo[3.2.1]octan-8-yl)nicotinonitrile] stands over 8.00; under `CC(SCC(=O)N1CC2CCC(C1)N2c1ccc(C#N)cn1)c1ccc(F)cc1` (racemic) [Example 133, 6-(3-(2-((1-(4-fluorophenyl)ethyl)thio)acetyl)-3,8-diazabicyclo[3.2.1]octan-8-yl)nicotinonitrile], 7.00 to 8.00; under `CC(SCCC(=O)N1CC2CCC(C1)N2c1ccc(C#N)cn1)c1ccccc1` (racemic) [Example 134, 6-(3-(3-((1-phenylethyl)thio)propanoyl)-3,8-diazabicyclo[3.2.1]octan-8-yl)nicotinonitrile], 6.00 to 7.00.
Turning to `CC(SCCC(=O)N1CC2CCC(C1)N2c1ccc(C#N)cn1)c1ccc(F)cc1` (racemic) [Example 135, 6-((3-((1-(4-fluorophenyl)ethyl)thio)propanoyl)-3,8-diazabicyclo[3.2.1]octan-8-yl)nicotinonitrile], the negative logarithm of the IC50 (pIC50) is 5.00 to 6.00.
In the case of `CC(SCCC(=O)N1CC2CCC(C1)N2c1ccc(C#N)cn1)c1ccccc1Br` (racemic) [Example 136, 6-((3-((1-(2-bromophenyl)ethyl)thio)propanoyl)-3,8-diazabicyclo[3.2.1]octan-8-yl)nicotinonitrile], the pIC50 is 6.00 to 7.00.
Under `CC(c1ccc(F)c(F)c1)N1CC(C(=O)N2CC3CCC(C2)N3c2ccc(C#N)cn2)C1` (racemic) [Example 137, 6-(3-(1-(1-(3,4-difluorophenyl)ethyl)azetidine-3-carbonyl)-3,8-diazabicyclo[3.2.1]octan-8-yl)nicotinonitrile] stands 6.00 to 7.00; under `COc1cc(C(F)(F)C2CC2C(=O)N2CC3CCC(C2)N3c2ccc(C#N)cn2)ccn1` (racemic) [Example 166, 6-(3-(2-(difluoro(2-methoxypyridin-4-yl)methyl)cyclopropane-1-carbonyl)-3,8-diazabicyclo[3.2.1]octan-8-yl)nicotinonitrile], 5.00 to 6.00; under `CC(c1ccc(F)cc1)[S+]([O-])CC(=O)N1CC2CCC(C1)N2c1ccc(C#N)cn1` (racemic) [Example 167, 6-(3-(2-((1-(4-fluorophenyl)ethyl)sulfinyl)acetyl)-3,8-diazabicyclo[3.2.1]octan-8-yl)nicotinonitrile], 6.00 to 7.00.
Under `CC(c1ccccc1)[S+]([O-])CC(=O)N1CC2CCC(C1)N2c1ccc(C#N)cn1` (racemic) [Example 168, 6-(3-(2-((1-phenylethyl)sulfinyl)acetyl)-3,8-diazabicyclo[3.2.1]octan-8-yl)nicotinonitrile] stands 5.00 to 6.00; under `CC(c1ccccc1)[S+]([O-])CCC(=O)N1CC2CCC(C1)N2c1ccc(C#N)cn1` (racemic) [Example 169, 6-(3-(3-((1-phenylethyl)sulfinyl)propanoyl)-3,8-diazabicyclo[3.2.1]octan-8-yl)nicotinonitrile], 5.00 to 6.00.
As for `CC(c1ccc(F)cc1)[S+]([O-])CCC(=O)N1CC2CCC(C1)N2c1ccc(C#N)cn1` (racemic) [Example 170, 6-(3-(3-((1-(4-fluorophenyl)ethyl)sulfinyl)propanoyl)-3,8-diazabicyclo[3.2.1]octan-8-yl) nicotinonitrile], the figure is under 6.00; as for `CC(c1ccccc1Br)[S+]([O-])CCC(=O)N1CC2CCC(C1)N2c1ccc(C#N)cn1` (racemic) [Example 171, 6-(3-(3-((1-(2-bromophenyl)ethyl)sulflnyl)propanoyl)-3,8-diazabicyclo[3.2.1]octan-8-yl) nicotinonitrile], under 6.00; as for `CC(c1ccccc1)S(=O)(=O)CC(=O)N1CC2CCC(C1)N2c1ccc(C#N)cn1` (racemic) [Example 172, 6-(3-(2-((1-phenylethyl)sulfonyl)acetyl)-3,8-diazabicyclo[3.2.1]octan-8-yl)nicotinonitrile], under 6.00.
As for `CC(c1ccc(F)cc1)S(=O)(=O)CC(=O)N1CC2CCC(C1)N2c1ccc(C#N)cn1` (racemic) [Example 173, 6-(3-(2-((1-(4-fluorophenyl)ethyl)sulfonyl)acetyl)-3,8-diazabicyclo[3.2.1]octan-8-yl)nicotinonitrile], the pIC50 was 5.00 to 6.00.
Under `CC(c1ccccc1)S(=O)(=O)CCC(=O)N1CC2CCC(C1)N2c1ccc(C#N)cn1` (racemic) [Example 174, 6-(3-(3-((1-phenylethyl)sulfonyl)propanoyl)-3,8-diazabicyclo[3.2.1]octan-8-yl)nicotinonitrile] stands under 6.00.
For the molecule `CC(c1ccc(F)cc1)S(=O)(=O)CCC(=O)N1CC2CCC(C1)N2c1ccc(C#N)cn1` (racemic) [Example 175, 6-(3-(3-((1-(4-fluorophenyl)ethyl)sulfonyl)propanoyl)-3,8-diazabicyclo[3.2.1]octan-8-yl) nicotinonitrile], the pIC50 is under 6.00.
Under `CC(c1ccccc1Br)S(=O)(=O)CCC(=O)N1CC2CCC(C1)N2c1ccc(C#N)cn1` (racemic) [Example 176, 6-(3-(3-((1-(2-bromophenyl)ethyl)sulfonyl)propanoyl)-3,8-diazabicyclo[3.2.1]octan-8-yl) nicotinonitrile] stands 5.00 to 6.00.

These data come from US12565501B2, “Muscarinic acetylcholine M1 receptor antagonists” (Contineum Therapeutics, Inc., priority 2019, dated 2026).
